# Laboratory results: patent US10265333B2, “Lipid nanomaterial containing lysophosphatidylcholine or derivative thereof and method for preparing same” (priority 2013, dated 2019)
# What was measured:
# [1] = test system: hair-clipped dorsal back skins of mice; test: Local irritation test in mice after single subcutaneous administration; format: in vivo; details: for Clinical signs: Normal appearance (% of mice) / Clinical signs: Normal appearance (mice/group) / Clinical signs: Skin ulcerative lesions (mice/group): male ICR mice, 14 days
# Description: In order to evaluate the local irritation of the LPC-containing lipid nanoparticle formulation (LPC-F; 18:0 LPC concentration: 10 mg/ml) prepared in example 1, 20, 10, and 5 ml/kg (18:0 LPC 200, 100, and 50 mg/kg) were single subcutaneously administered to hair-clipped dorsal back skins of mice. Based on the “Testing Guidelines for Safety Evaluation of Drugs” [2009] in Notification No. 2009-116 issued by the Korea Food and Drug Administration, the changes in mortality, body weight, clinical signs, gross and histopathological findings around injection sites during 14 days were compared between the LPC-containing lipid nanoparticle formulations and equal concentrations of lysophosphatidylcholine saline suspension (LPC-API) 10 mg/ml treated group. In the present test, saline was used as negative control, and the highest dosage 200 mg/kg was set based on the maximum permissible dosage 20 ml/kg in rodents (Flecknell, 1996; KFDA Guidelines, Notification 2009-116, 2009; OECD Guidelines, #423, 2001). The dosages were set to 10 and 5 ml/kg in middle and lowest dosage groups, respectively.
# Animal male ICR mice were 6-wk old upon receipt (body weight ranged in 30-32 g), and were 10-wk old after acclimatization for 28 days (body weight ranged in 36.4-49.0 g). The animals were distributed into the following groups for the test.
# All data were expressed as mean±standard deviation (SD) of five mice. Multiple comparison tests for different dosage groups were conducted. Variance homogeneity was examined using the Levene test (Levene A, Clin Otalary, 1981; 6:145-51). […] Statistical analyses were conducted using SPSS (Release 14.0 K, SPSS Inc., USA; Ludbrook, Clin Exp Pharmacol Physiol, 1997; 24:294-6). A p-value <0.05 was considered statistically significant.
# [2] = test system: heparinized rat (SD rat) bloods; test: Hemolysis in heparinized rat blood (OD 570 nm of supernatant); format: cell-based
# Description: (§1) In order to evaluate the degree of hemolysis and erythrocyte aggregation induced by LPC-containing lipid nanoparticles (LPC-F; 18:0 LPC concentration: 10 mg/ml) prepared in example 1, 200 μl of saline, distilled water, six different concentration solutions (stock, 2, 4, 8, 16 and 32-fold diluted solutions) of LPC-F, or non-formulated lysophosphatidylcholine (LPC-API) 10 mg/ml concentrated saline solution were directly added into 1 ml of collected heparinized rat (SD rat) bloods, and then, incubated at 37° C. in shaking incubator at 100 rpm for 3 hrs. The prepared LPC-F was fold-diluted with saline to prepare six different concentrations of LPC-F. LPC-API 10 mg/ml concentrated solution was prepared through dispersion in saline, and then fold-diluted with saline to prepare six different concentrations of LPC-API Five independent experiments were repeatedly conducted. If possible, blood taken from same rats was used in each independent experiment. After the incubation in shaking incubator at 100 rpm, the formed erythrocyte aggregation was semi-quantitatively evaluated, and the OD values were calculated for the supernatant in each tube, which was prepared by centrifuging the incubated samples at 12,500 rpm for 10 minutes, and then reading the OD at 570 nm, respectively. Hemolysis was calculated by equation 1 below. The hemolytic reaction was considered positive if the hemolytic percentage was greater than 5%. Hemolytic percentage (%)=(OD sample−OD negative/(OD positive−OD negative)×100 [Equation 1]
# Where negative=saline, and positive=distilled water
# OD values and semiquantative erythrocyte aggregation scores were expressed by mean±standard deviation of five independent experiments. Multiple comparison tests for different dose groups were conducted. Variance homogeneity was examined using the Levene test (Levene A, Clin Otalary, 1981; 6:145-51). […] Statistical analyses were conducted using SPSS (Release 14.0 K, SPSS Inc., USA; Ludbrook, Clin Exp Pharmacol Physiol, 1997; 24:294-6). A p-value p<0.05 was considered statistically significant.
# [3] = test system: heparinized rat (SD rat) bloods; test: Erythrocyte aggregation in heparinized rat blood (semiquantitative score); format: cell-based; details: all six different concentrations (stock to 32-fold diluted)
# Description: as §1, with “If possible, blood taken from same rats was used in each independent experiment.” left out, “The hemolytic reaction was considered positive if the hemolytic percentage was greater than 5%. Hemolytic percentage (%)=(OD sample−OD negative/(OD positive−OD negative)×100 [Equation 1]” left out
# Erythrocyte aggregation was evaluated based on semiquantative scores as follows: […]
# [4] = single s.c. 5 ml/kg (LPC 50 mg/kg)
# [5] = single s.c. 10 ml/kg (LPC 100 mg/kg)
# [6] = single s.c. 20 ml/kg (LPC 200 mg/kg)
substance,measurement,setting,value
lysophosphatidylcholine [LPC-API],Degree of ulcerative skin lesions around injection sites,"[1]; 200, 100, 50 mg/kg treated groups, from 48 hrs after end of treatment",slight [1+] or moderate [2+]
same,Histopathology: skin ulcerative lesions (% of mice),[1]; single s.c. 50 mg/kg,60%
same,Necropsy: skin ulcerative lesions around injection sites (% of mice),[1]; single s.c. 50 mg/kg,60%
same,Histopathology: skin ulcerative lesions (% of mice),[1]; single s.c. 100 mg/kg,60%
same,Necropsy: skin ulcerative lesions around injection sites (% of mice),[1]; single s.c. 100 mg/kg,60%
same,Histopathology: skin ulcerative lesions (% of mice),[1]; single s.c. 200 mg/kg,100%
same,Necropsy: skin ulcerative lesions around injection sites (% of mice),[1]; single s.c. 200 mg/kg,100%
same,"Histopathology, skins around injection sites: Normal (mice/group)",[1]; [4],2/5
same,Histopathology: hUL degree 1+ Slight (mice/group),[1]; [4],3/5
same,Histopathology: hUL degree 2+ Moderate (mice/group),[1]; [4],0/5
same,Histopathology: hUL degree 3+ Severe (mice/group),[1]; [4],0/5
same,"Histopathology: hUL, histopathological skin ulcerative lesions (mice/group)",[1]; [4],3/5
same,"Necropsy, skins around injection sites: Normal (mice/group)",[1]; [4],2/5
same,Necropsy: gUL degree 1+ Slight (mice/group),[1]; [4],3/5
same,Necropsy: gUL degree 2+ Moderate (mice/group),[1]; [4],0/5
same,Necropsy: gUL degree 3+ Severe (mice/group),[1]; [4],0/5
same,"Necropsy: gUL, gross skin ulcerative lesions (mice/group)",[1]; [4],3/5
same,Clinical signs: Normal appearance (% of mice),[1]; [4],(40%)
same,Clinical signs: Normal appearance (mice/group),[1]; [4],2/5
same,Clinical signs: Skin ulcerative lesions (mice/group),[1]; [4],3/5
same,"Histopathology, skins around injection sites: Normal (mice/group)",[1]; [5],2/5
same,Histopathology: hUL degree 1+ Slight (mice/group),[1]; [5],3/5
same,Histopathology: hUL degree 2+ Moderate (mice/group),[1]; [5],0/5
same,Histopathology: hUL degree 3+ Severe (mice/group),[1]; [5],0/5
same,"Histopathology: hUL, histopathological skin ulcerative lesions (mice/group)",[1]; [5],3/5
same,"Necropsy, skins around injection sites: Normal (mice/group)",[1]; [5],2/5
same,Necropsy: gUL degree 1+ Slight (mice/group),[1]; [5],3/5
same,Necropsy: gUL degree 2+ Moderate (mice/group),[1]; [5],0/5
same,Necropsy: gUL degree 3+ Severe (mice/group),[1]; [5],0/5
same,"Necropsy: gUL, gross skin ulcerative lesions (mice/group)",[1]; [5],3/5
same,Clinical signs: Normal appearance (% of mice),[1]; [5],(40%)
same,Clinical signs: Normal appearance (mice/group),[1]; [5],2/5
same,Clinical signs: Skin ulcerative lesions (mice/group),[1]; [5],3/5
same,"Histopathology, skins around injection sites: Normal (mice/group)",[1]; [6],0/5
same,Histopathology: hUL degree 1+ Slight (mice/group),[1]; [6],3/5
same,Histopathology: hUL degree 2+ Moderate (mice/group),[1]; [6],1/5
same,Histopathology: hUL degree 3+ Severe (mice/group),[1]; [6],1/5
same,"Histopathology: hUL, histopathological skin ulcerative lesions (mice/group)",[1]; [6],5/5
same,"Necropsy, skins around injection sites: Normal (mice/group)",[1]; [6],0/5
same,Necropsy: gUL degree 1+ Slight (mice/group),[1]; [6],3/5
same,Necropsy: gUL degree 2+ Moderate (mice/group),[1]; [6],1/5
same,Necropsy: gUL degree 3+ Severe (mice/group),[1]; [6],1/5
same,"Necropsy: gUL, gross skin ulcerative lesions (mice/group)",[1]; [6],5/5
same,Clinical signs: Normal appearance (% of mice),[1]; [6],(0%)
same,Clinical signs: Normal appearance (mice/group),[1]; [6],0/5
same,Clinical signs: Skin ulcerative lesions (mice/group),[1]; [6],5/5
same,Skin findings around injection sites (conclusion),"[1]; single subcutaneous treatment, compared with negative vehicle control",severe skin ulcerative lesions
same,Hemolytic percentage (%),"[2]; 2-fold diluted solution, 200 μl in 1 ml rat blood, 37° C., 3 hrs",148.65±15.01%
same,Hemolytic percentage (%),"[2]; 4-fold diluted solution, 200 μl in 1 ml rat blood, 37° C., 3 hrs",129.70±7.23%
same,Hemolytic percentage (%),"[2]; 8-fold diluted solution, 200 μl in 1 ml rat blood, 37° C., 3 hrs",117.67±5.97%
same,Hemolytic percentage (%),"[2]; 16-fold diluted solution, 200 μl in 1 ml rat blood, 37° C., 3 hrs",78.74±3.30%
same,Hemolytic percentage (%),"[2]; 32-fold diluted solution, 200 μl in 1 ml rat blood, 37° C., 3 hrs",26.86±6.40%
same,Hemolytic percentage (%),"[2]; stock (LPC 10 mg/ml), 200 μl in 1 ml rat blood, 37° C., 3 hrs",157.68±10.44%
same,Hemolytic percentage (%),[2]; throughout all different concentrations including the lowest 32-fold diluted solutions,greater than 5%
same,Erythrocyte aggregation scores as compared with non-treated or negative saline controls,[3],significant increases
